The text below walks through data of patent publication US6541495B1, “Carboxylic acid derivatives as inhibitors of hyperproliferation diseases” (Pfizer INC, priority 1999, dated 2003).

For the assay, the target named is T1, VEGF/GAG (glycosaminoglycan) binding (purified VEGF165, [125I]heparin-16-mer) (Homo sapiens, UniProt P15692).
T1 construct: purchased Repligen, Inc
T1 sequence (P15692 27-191 isoform P15692-4): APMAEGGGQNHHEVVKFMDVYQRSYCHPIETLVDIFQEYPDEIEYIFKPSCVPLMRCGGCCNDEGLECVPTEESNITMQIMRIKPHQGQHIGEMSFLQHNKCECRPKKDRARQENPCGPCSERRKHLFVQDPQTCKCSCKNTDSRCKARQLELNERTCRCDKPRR
Description: VEGF/GAG (glycosaminoglycan) binding inhibition, [125I]heparin-16-mer filter plate assay. The note with it: activity data for representative compounds of formula I; in vitro VEGF165 / [125I]heparin-16-mer binding, 60 minutes at room temperature. As for the experimental part:
The in vitro activity of the compounds of formula I in inhibiting VEGF/GAG (glycosaminoglycan) binding may be measured using the assay described in U.S. Pat. No. 5,795,860, the subject matter of which is incorporated herein by reference.
Using mixed cellulose ester 96-well filter plates, 150 μL of Dulbeccos PBS (phosphate buffered saline) containing 10% ovalbumin is added. Compound (5.0 μL) is added at a final concentration of 1.8 μM. Compounds are dissolved in 8% DMSO (final DMSO concentration is 0.16%) and tested at concentrations of 32, 10, 3.2, 1.0, 0.32 and 0.10 μM. A mixture of [^125I]heparin-16-mer (4500 cpm per well), purified VEGF165 (20 nM final concentration/well, prepared by Repligen, Inc.) and Dulbeccos PBS with 10% ovalbumin is added to the 96-well plate in a volume of 100 μL. Nonspecific binding is defined using 10 μM heparin-sodium from porcine intestinal mucosa. The assay plate is incubated for 60 minutes at room temperature, filtered using a Millipore filtration apparatus, the plastic bottom plate is removed and the filter plate is allowed to completely dry. The plate bottom is sealed with plastic plate seal and 25 μL of scintillation cocktail is added to each well. The top plate is sealed and is counted for radioactivity on a Microbeta Scintillation Counter. The assay is run in a final volume of 250 μL.

As usually defined, the IC50 is the concentration needed to halve the response being measured. High values mean weaker potency in that assay, low ones greater potency in that assay. For `CCCSC(Cc1ccc2oc(Cc3nc(-c4ccccc4)oc3C)cc2c1)C(=O)O` (stereo not drawn) [3-[2-(5-Methyl-2-phenyl-oxazol-4-ylmethyl)-benzofuran-5-yl]-2-propylsulfanyl-propionic acid], the IC50 was found to be 1.5 µM.
With `CCCCCCCCSC(Cc1ccc2oc(Cc3nc(-c4ccccc4)oc3C)cc2c1)C(=O)O` (stereo not drawn) [3-[2-(5-Methyl-2-phenyl-oxazol-4-ylmethyl)-benzofuran-5-yl]-2-octylsulfanyl-propionic acid], the IC50 is 0.8 µM.
For the compound `Cc1oc(-c2ccccc2)nc1Cc1cc2cc(CC(SCc3ccccc3)C(=O)O)ccc2o1` (stereo not drawn) [2-Benzylsulfanyl-3-[2-(5-methyl-2-phenyl-oxazol-4-ylmethyl)-benzofuran-5-yl]-propionic acid], the IC50 came to 2.6 µM.
Consider `CSC(Cc1ccc2oc(Cc3nc(-c4cccc(C)c4)oc3C)cc2c1)C(=O)O` (stereo not drawn) [2-Methylsulfanyl-3-[2-(5-methyl-2-m-tolyl-oxazol-4-ylmethyl)-benzofuran-5-yl]-propionic acid], for which the IC50 is 8 µM.
`Cc1oc(-c2ccccc2)nc1Cc1cc2cc(CCC(=O)O)ccc2o1` [3-[2-(5-Methyl-2-phenyl-oxazol-4-ylmethyl)-benzofuran-5-yl]-propionic acid]: the IC50 stood at 6.8 µM.
The compound `Cc1oc(-c2ccccc2)nc1Cc1cc2cc(CC(Oc3ccccc3)C(=O)O)ccc2o1` (stereo not drawn) [3-[2-(5-Methyl-2-phenyl-oxazol-4-ylmethyl)-benzofuran-5-yl]-2-phenoxy-propionic acid] yielded an IC50 of 2 µM.
In turn, `Cc1oc(-c2ccccc2)nc1Cc1cc2cc(CC(OCCCO)C(=O)O)ccc2o1` (stereo not drawn) [2-(3-Hydroxy-propoxy)-3-[2-(5-methyl-2-phenyl-oxazol-4-ylmethyl)-benzofuran-5-yl]-propionic acid] showed an IC50 of 14 µM.
With `C=CCOC(Cc1ccc2oc(Cc3nc(-c4ccccc4)oc3C)cc2c1)C(=O)O` (stereo not drawn) [2-Allyloxy-3-[2-(5-methyl-2-phenyl-oxazol-4-ylmethyl)-benzofuran-5-yl]-propionic acid], the half-maximal inhibitory concentration (IC50) worked out at 13 µM.
`CSC(Cc1ccc(OCCc2nc(-c3ccccc3)oc2C)cc1)C(=O)O` (stereo not drawn) [3-{4-[2-(5-Methyl-2-phenyl-oxazol-4-yl)-ethoxy]-phenyl}-2-methylsulfanyl-propionic acid] gave an IC50 of 4.5 µM.
